pKd: −log10 of the molar value. Numbered stars: 1 amine (or outer) side, 2 acyl side, 3 side chain; on linkers, the order of the positions; unused ones are H or OH. Bridge positions count the residues as written; N and C are the ends. Square brackets hold non-standard residues; d marks the D form. Peptide text beside a SMILES is read from it. TATA = O=C(CC[*:1])N1CN(C(=O)CC[*:2])CN(C(=O)CC[*:3])C1
biological target: T1, Fc-tagged human NKp46 (Homo sapiens, UniProt O76036); assay: NKp46 SPR assay (Method 1 and/or Method 2); type: binding; settings: SPR Method 1 and/or Method 2, Table 3B
T1 construct: purchased ACROBiosystems NC1-H5257
T1 sequence (O76036 22-304): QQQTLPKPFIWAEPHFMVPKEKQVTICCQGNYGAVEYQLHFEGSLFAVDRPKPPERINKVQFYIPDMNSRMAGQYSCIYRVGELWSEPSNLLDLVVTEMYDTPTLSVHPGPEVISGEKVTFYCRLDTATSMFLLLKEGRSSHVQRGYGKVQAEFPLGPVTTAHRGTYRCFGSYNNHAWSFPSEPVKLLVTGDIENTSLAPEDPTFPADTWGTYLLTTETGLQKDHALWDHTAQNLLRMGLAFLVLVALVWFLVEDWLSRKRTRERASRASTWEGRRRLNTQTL
Procedure: SPR experiments were performed to determine ka (M^−1s^−1), kd (s^−1), KD (nM) values (where measurable) of various bicyclic peptides to immobilised NKp46.
For analysis of peptide binding to NKp46, a Biacore 3000 instrument was used with a Cytiva Streptavidin chip. Capture of the protein (recombinant human NKp46-Fc fusion biotinylated via Avi-tag) was carried out at 25° C. with HBS-N (10 mM HEPES, 0.15 M NaCl, pH 7.4) as the running buffer and biotinylated NKp46 was captured to a level of 400-800 RU using a dilution of protein to 0.2 μM in buffer. Buffer was then changed to PBS/0.05% Tween 20 and a dilution series of the peptides was prepared in this buffer with a final DMSO concentration of 0.5% with a top peptide concentration of 100 nM-5000 nM and 6 further 2 or 3-fold dilutions. The SPR analysis was run at 25° C. and a flow rate of 50 μl/min with 60 seconds association and 200-400 seconds dissociation time. Data were corrected for DMSO excluded volume effects. All data were double-referenced for blank injections and reference surface using standard processing procedures and data processing and kinetic fitting were performed using Scrubber software, version 2.0c (BioLogic Software). Data were fitted using simple 1:1 binding model allowing for mass transport effects where appropriate.
Peptides were tested against Fc-tagged human NKp46 (ACROBiosystems, cat no. NC1-H5257).
For analysis of peptide binding, a Biacore 8k+ instrument was used with a CM5 chip (Cytiva). All experiments were carried out at 25° C. Anti-human IgG (Fc) antibody (Cytiva) was immobilized on all flow cells by standard amine coupling chemistry. The running buffer was HBS-N(Cytiva, 10 mM HEPES, 0.15 M NaCl, pH 7.4) and the flow rate was 10 μL/min. The carboxymethyl dextran surface was activated with a 1:1 ratio of 0.4 M 1-ethyl-3-(3-dimethylaminopropyl) carbodiimide hydrochloride (EDC)/0.1 M N-hydroxy succinimide (NHS) (Cytiva) for 420s. […] Residual activated groups were blocked with a 420 s injection of 1 M ethanolamine (pH 8.5). The final surface density was 3000-5000 RU. Fc-tagged human NKp46 was diluted to 0.1 μM in HBS-N and was captured on flow cell 2 only of the sensor chip at a flow rate of 10 μL/min to 500-1000 RU. The buffer was then changed to PBS-P+(Cytiva) supplemented with 2% DMSO. […] The flow rate was 50 μL/min with 60 s association and 400 s dissociation. Data were corrected for DMSO volume exclusion effects. All data were double-referenced against blank injections and reference surface response using standard processing procedures. Data processing and kinetic fitting was performed using Biacore Insight Evaluation Software with Extended Screening and Characterization Extension (Cytiva). Data were fitted using steady state affinity 1:1 binding model to determine KD. Data were fitted using kinetic 1:1 binding model to determine kinetic constants where appropriate.

SMILES | pKd
CC(C)C[C@@H]1NC(=O)[C@H](CC(=O)O)NC(=O)[C@@H](NC(=O)[C@H](C)N)CSCCC(=O)N2CN3CN(C2)C(=O)CCSC[C@H](NC(=O)[C@H](CC(N)=O)NC(=O)[C@H](Cc2c[nH]cn2)NC(=O)[C@H]([C@@H](C)O)NC(=O)[C@H]([C@@H](C)O)NC1=O)C(=O)N[C@@H](CCC(N)=O)C(=O)N[C@@H](Cc1c[nH]c2ccccc12)C(=O)NCC(=O)N[C@@H](C)C(=O)N[C@H](C(=O)N[C@@H](C)C(N)=O)CSCCC3=O [BCY18272, A-(SEQ ID NO: 120)-A] (H-ACDLTTHNCQWGACA-NH2; linker 2-9-14 via TATA) | 5.50
CC[C@H](C)[C@@H]1NC(=O)CNC(=O)[C@H](Cc2c[nH]c3ccccc23)NC(=O)[C@H](C(C)C)NC(=O)[C@@H]2CSCCC(=O)N3CN(CN(C3)C(=O)CCSC[C@@H](C(=O)N[C@@H](C)C(N)=O)NC1=O)C(=O)CCSC[C@H](NC(=O)[C@H](C)N)C(=O)N[C@@H](CC(=O)O)C(=O)N[C@@H](CC(C)C)C(=O)N[C@@H]([C@@H](C)O)C(=O)N[C@@H]([C@@H](C)O)C(=O)N[C@@H](Cc1c[nH]cn1)C(=O)N[C@@H](CC(N)=O)C(=O)N2 [BCY18285, A-(SEQ ID NO: 128)-A] (H-ACDLTTHNCVWGICA-NH2; linker 2-9-14 via TATA; N-terminus and C-terminus assumed) | 5.42
CC[C@H](C)[C@@H]1NC(=O)CNC(=O)[C@H](Cc2cn(C)c3ccccc23)NC(=O)[C@H](CCC(N)=O)NC(=O)[C@@H]2CSCCC(=O)N3CN(CN(C3)C(=O)CCSC[C@@H](C(=O)N[C@@H](C)C(N)=O)NC1=O)C(=O)CCSC[C@H](NC(=O)[C@H](C)N)C(=O)N[C@@H](CC(=O)O)C(=O)N[C@@H](CC(C)C)C(=O)N[C@@H]([C@@H](C)O)C(=O)N[C@@H]([C@@H](C)O)C(=O)N[C@@H](Cc1c[nH]cn1)C(=O)N[C@@H](CC(N)=O)C(=O)N2 [BCY18288, A-(SEQ ID NO: 131)-A] | 6.45
CC[C@H](C)[C@@H]1NC(=O)[C@@H](C)NC(=O)[C@H](Cc2c[nH]c3ccccc23)NC(=O)[C@H](CCC(N)=O)NC(=O)[C@@H]2CSCCC(=O)N3CN(CN(C3)C(=O)CCSC[C@@H](C(=O)N[C@@H](C)C(N)=O)NC1=O)C(=O)CCSC[C@H](NC(=O)[C@H](C)N)C(=O)N[C@@H](CC(=O)O)C(=O)N[C@@H](CC(C)C)C(=O)N[C@@H]([C@@H](C)O)C(=O)N[C@@H]([C@@H](C)O)C(=O)N[C@@H](Cc1c[nH]cn1)C(=O)N[C@@H](CC(N)=O)C(=O)N2 [BCY18292, A-(SEQ ID NO: 135)-A] (H-ACDLTTHNCQW[dA]ICA-NH2; linker 2-9-14 via TATA; N-terminus and C-terminus assumed) | 5.84
CSCC[C@@H]1NC(=O)[C@@H]2CSCCC(=O)N3CN(CN(C3)C(=O)CCSC[C@H](N)C(=O)N[C@@H](CC(N)=O)C(=O)N[C@@H](CC(C)C)C(=O)N[C@@H](CCC(N)=O)C(=O)N[C@@H](C)C(=O)N3CCC[C@H]3C(=O)N2)C(=O)CCSC[C@@H](C(N)=O)NC(=O)[C@H](C(C)C)NC(=O)[C@H](CCCCN)NC(=O)CNC(=O)[C@H]([C@@H](C)O)NC(=O)[C@H](CC(C)C)NC1=O [BCY18295, (SEQ ID NO: 4)] (H-CNLQAPCMLTGKVC-NH2; linker 1-7-14 via TATA; C-terminus assumed) | 5.19
CSCC[C@@H]1NC(=O)[C@@H]2CSCCC(=O)N3CN(CN(C3)C(=O)CCSC[C@@H](C(=O)N[C@@H](C)C(N)=O)NC(=O)[C@H](C(C)C)NC(=O)[C@H](CCCCN)NC(=O)CNC(=O)[C@H]([C@@H](C)O)NC(=O)[C@H](CC(C)C)NC1=O)C(=O)CCSC[C@H](NC(=O)[C@H](C)N)C(=O)N[C@@H](CC(N)=O)C(=O)N[C@@H](CC(C)C)C(=O)N[C@@H](CCC(N)=O)C(=O)N[C@@H](C)C(=O)N[C@@H](C)C(=O)N2 [BCY18299, A-(SEQ ID NO: 64)-A] (H-ACNLQAACMLTGKVCA-NH2; linker 2-8-15 via TATA; N-terminus assumed) | 5.74
CSCC[C@@H]1NC(=O)[C@@H]2CSCCC(=O)N3CN(CN(C3)C(=O)CCSC[C@@H](C(=O)N[C@@H](C)C(N)=O)NC(=O)[C@H](C(C)C)NC(=O)[C@H](CCCCN)NC(=O)CNC(=O)[C@H]([C@@H](C)O)NC(=O)[C@H](C)NC1=O)C(=O)CCSC[C@H](NC(=O)[C@H](C)N)C(=O)N[C@@H](CC(N)=O)C(=O)N[C@@H](CC(C)C)C(=O)N[C@@H](CCC(N)=O)C(=O)N[C@@H](C)C(=O)N1CCC[C@H]1C(=O)N2 [BCY18301, A-(SEQ ID NO: 65)-A] (H-ACNLQAPCMATGKVCA-NH2; linker 2-8-15 via TATA; C-terminus assumed) | 5.39
CSCC[C@@H]1NC(=O)[C@@H]2CSCCC(=O)N3CN(CN(C3)C(=O)CCSC[C@@H](C(=O)N[C@@H](C)C(N)=O)NC(=O)[C@H](C(C)C)NC(=O)[C@H](CCCCN)NC(=O)CNC(=O)[C@H](C)NC(=O)[C@H](CC(C)C)NC1=O)C(=O)CCSC[C@H](NC(=O)[C@H](C)N)C(=O)N[C@@H](CC(N)=O)C(=O)N[C@@H](CC(C)C)C(=O)N[C@@H](CCC(N)=O)C(=O)N[C@@H](C)C(=O)N1CCC[C@H]1C(=O)N2 [BCY18302, A-(SEQ ID NO: 66)-A] (H-ACNLQAPCMLAGKVCA-NH2; linker 2-8-15 via TATA; N-terminus assumed) | 5.27
CSCC[C@@H]1NC(=O)[C@@H]2CSCCC(=O)N3CN(CN(C3)C(=O)CCSC[C@@H](C(=O)N[C@@H](C)C(N)=O)NC(=O)[C@H](C(C)C)NC(=O)[C@H](CCCCN)NC(=O)[C@H](C)NC(=O)[C@H]([C@@H](C)O)NC(=O)[C@H](CC(C)C)NC1=O)C(=O)CCSC[C@H](NC(=O)[C@H](C)N)C(=O)N[C@@H](CC(N)=O)C(=O)N[C@@H](CC(C)C)C(=O)N[C@@H](CCC(N)=O)C(=O)N[C@@H](C)C(=O)N1CCC[C@H]1C(=O)N2 [BCY18303, A-(SEQ ID NO: 67)-A] (H-ACNLQAPCMLTAKVCA-NH2; linker 2-8-15 via TATA) | 5.56
CSCC[C@@H]1NC(=O)[C@@H]2CSCCC(=O)N3CN(CN(C3)C(=O)CCSC[C@@H](C(=O)N[C@@H](C)C(N)=O)NC(=O)[C@H](C(C)C)NC(=O)[C@H](C)NC(=O)CNC(=O)[C@H]([C@@H](C)O)NC(=O)[C@H](CC(C)C)NC1=O)C(=O)CCSC[C@H](NC(=O)[C@H](C)N)C(=O)N[C@@H](CC(N)=O)C(=O)N[C@@H](CC(C)C)C(=O)N[C@@H](CCC(N)=O)C(=O)N[C@@H](C)C(=O)N1CCC[C@H]1C(=O)N2 [BCY18304, A-(SEQ ID NO: 68)-A] (H-ACNLQAPCMLTGAVCA-NH2; linker 2-8-15 via TATA; N-terminus assumed) | 5.82
CC(C)C[C@@H]1NC(=O)[C@H](CC(N)=O)NC(=O)[C@@H](NC(=O)[C@H](C)N)CSCCC(=O)N2CN3CN(C2)C(=O)CCSC[C@H](NC(=O)[C@@H]2CCCN2C(=O)[C@H](C)NC(=O)[C@H](CCC(N)=O)NC1=O)C(=O)N[C@@H](CC(C)C)C(=O)N[C@@H](CC(C)C)C(=O)N[C@@H]([C@@H](C)O)C(=O)NCC(=O)N[C@@H](CCCCN)C(=O)N[C@@H](C(C)C)C(=O)N[C@H](C(=O)N[C@@H](C)C(N)=O)CSCCC3=O [BCY18313, A-(SEQ ID NO: 75)-A] (H-ACNLQAPCLLTGKVCA-NH2; linker 2-8-15 via TATA; N-terminus assumed) | 5.56
CSCC[C@@H]1NC(=O)[C@@H]2CSCCC(=O)N3CN(CN(C3)C(=O)CCSC[C@@H](C(=O)N[C@@H](C)C(N)=O)NC(=O)[C@H](C(C)C)NC(=O)[C@H](CCCCN)NC(=O)CNC(=O)[C@H]([C@@H](C)O)NC(=O)[C@H](CCC(=O)O)NC1=O)C(=O)CCSC[C@H](NC(=O)[C@H](C)N)C(=O)N[C@@H](CC(N)=O)C(=O)N[C@@H](CC(C)C)C(=O)N[C@@H](CCC(N)=O)C(=O)N[C@@H](C)C(=O)N1CCC[C@H]1C(=O)N2 [BCY18316, A-(SEQ ID NO: 78)-A] (H-ACNLQAPCMETGKVCA-NH2; linker 2-8-15 via TATA; C-terminus assumed) | 5.82
CSCC[C@@H]1NC(=O)[C@@H]2CSCCC(=O)N3CN(CN(C3)C(=O)CCSC[C@@H](C(=O)N[C@@H](C)C(N)=O)NC(=O)[C@H](C(C)C)NC(=O)[C@H](CCCCN)NC(=O)CNC(=O)[C@H]([C@@H](C)O)NC(=O)[C@H](Cc3ccc(O)cc3)NC1=O)C(=O)CCSC[C@H](NC(=O)[C@H](C)N)C(=O)N[C@@H](CC(N)=O)C(=O)N[C@@H](CC(C)C)C(=O)N[C@@H](CCC(N)=O)C(=O)N[C@@H](C)C(=O)N1CCC[C@H]1C(=O)N2 [BCY18318, A-(SEQ ID NO: 80)-A] (H-ACNLQAPCMYTGKVCA-NH2; linker 2-8-15 via TATA) | 5.72

Source: patent US20240108738A1, “BICYCLIC PEPTIDE LIGANDS SPECIFIC FOR NK CELLS” (Bicycle Tx Limited, priority 2021, published 2024)
